53 compounds from US20140148484A1, “PYRAZOLE COMPOUNDS FOR TREATING HAIRLOSS” (Boehringer Ingelheim International GmbH, priority 2012, published 2014) can be followed below.

pKi: −log10 of the molar value.

The target in the experiment is T1, human CRTH2 receptor (Homo sapiens, UniProt Q9Y5Y4).
T1 construct: host or cells: CHO-K1 (CHO-K1-hCRTH2 cells); membranes prepared in house from the purchased cell line
T1 sequence (Q9Y5Y4 1-395): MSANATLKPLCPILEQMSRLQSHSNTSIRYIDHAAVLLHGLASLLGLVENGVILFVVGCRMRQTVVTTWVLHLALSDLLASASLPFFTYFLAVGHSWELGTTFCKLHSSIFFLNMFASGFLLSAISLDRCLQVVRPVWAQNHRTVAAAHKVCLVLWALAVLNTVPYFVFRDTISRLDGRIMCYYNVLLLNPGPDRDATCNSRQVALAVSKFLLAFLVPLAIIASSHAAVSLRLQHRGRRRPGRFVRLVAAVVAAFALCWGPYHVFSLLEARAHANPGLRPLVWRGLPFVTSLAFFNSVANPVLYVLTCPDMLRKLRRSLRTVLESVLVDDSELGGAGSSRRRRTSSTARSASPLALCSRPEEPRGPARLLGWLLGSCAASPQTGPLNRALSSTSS
Description: Human CRTH2 receptor membrane radioligand binding assay (SPA, [3H]-PGD2). As to conditions: displacement of [3H]-PGD2 (1 nM) from CHO-K1-hCRTH2 cell membranes, 3 h room temperature. On the procedure: Preparation of Human CRTH2 Receptor Membranes and Radioligand Binding Assay
The binding of CRTH2 antagonists is determined using membranes prepared from Chinese hamster ovary cells (CHO-K1 cells) transfected with the human CRTH2 receptor (CHO-K1-hCRTH2 cells, Perkin Elmer, Cat No ES-561-C). To produce cell membranes the CHO-K1-hCRTH2 cells are cultured in suspension in CHO SFMII medium supplemented with 400 μg/ml G418. The cells are harvested by centrifugation at 300 g for 10 min at room temperature. The cell pellet is resuspended in Phosphate Buffer Saline (PBS) including a protease inhibitor mix (Complete, Roche) and adjusted to a concentration of 10E7 cells/ml. The CHO-K1-hCRTH2 cells are disrupted by nitrogen […] to obtain the membrane preparation. Cell debris is removed by centrifugation (500 g at 4° C., 30 min) and the supernatant is transferred into fresh tubes followed by a second centrifugation at 40000 g for 1 h at 4° C. to sediment the membranes. The membranes are suspended in SPA incubation buffer (50 mM Tris HCl, 10 mM MgCl2, 150 mM NaCl, 1 mM EDTA, pH 7.4) without bovine serum albumin, homogenized by passing through a single use needle (Terumo, 23G×1″), and stored in aliquots at −80° C.
The CRTH2 receptor binding assay is performed in a scintillation proximity assay (SPA) format with the radioligand [^3H]-PGD2 (Perkin Elmer, NET616000MC). CHO-K1-hCRTH2 cell membranes are again homogenized by passing through a single use needle (Terumo, 23G×1″) and diluted in SPA incubation buffer in suitable concentrations (0.5-10 μg protein/well). The SPA assay is set up in 96 well microtiter plates (Perkin Elmer, CatNo. 6005040) in SPA incubation buffer with a final volume of 200 μl per well and final concentration of 50 mM Tris-HCl, 10 mM MgCl2, 150 mM NaCl, 1 mM EDTA pH 7.4, 0.1% bovine serum albumin). The SPA assay mixture contains 60 μl of the membrane suspension, 80 μl of Wheat Germ Agglutinin coated PVT beads (GE Healthcare, RPNQ-0001, 0.3 mg/well), 40 μl of [3H]-PGD2 diluted in SPA buffer to a final concentration of 1 nM (50 000 dpm) and 20 μl of the test compound (dissolved in dimethylsulfoxid). The SPA assay mixture is incubated for 3 h at room temperature. Bound radioactivity is determined with a scintillation counter (Micro Beta Trilux, Wallac).
The binding of [^3H]-PGD2 to CHO-K1-hCRTH2 cell membranes is determined in the absence (total binding, Bo) and presence (non-specific binding, NSB) of unlabelled PGD2 (1 μM, Cayman Chemical, Cat No 12010) or a reference CRTH2 antagonist (10 μM CAY10471, Cayman Chemical, Cat No 10006735).
Determination of the affinity of a test compound is calculated by subtraction of the non-specific binding (NSB) from the total binding (Bo) or the binding in the presence of the test compound (B) at a given compound concentration. […] The Bo−NSB value is set to 0% inhibition.
For orientation: In a radioligand displacement assay an active substance lowers the binding of a labelled ligand.

The compound `CCc1nn(Cc2ccc(NC(=O)c3ccc(Br)cc3Cl)cc2)c(CC)c1CC(=O)O` [Example 2.22] showed a negative-log Ki (pKi) of 8.72.

The compound `Cc1cc(Cl)ccc1C(=O)Nc1ccc(Cn2nc(C)c(CC(=O)O)c2C)cc1` [Example 1.2] gave a pKi of 7.79.

`Cc1nn(Cc2ccc(S(=O)(=O)Nc3ccc(F)cc3)cc2)c(C)c1CC(=O)O` [Example 10.1]: the negative logarithm of the Ki (pKi) was 8.59. This pKi lies 0.80 log units higher than the previous one.

For `CCc1nn(C(C)c2ccc(C(=O)Nc3ccc(C(F)(F)F)cc3)cc2)c(CC)c1CC(=O)O` (centres unmarked) [Example 17.2], the negative-log Ki (pKi) was 8.37.

`CCc1nn(Cc2ccc(NC(=O)c3cccc(C)c3Br)cc2)c(CC)c1CC(=O)O` [Example 2.25]: the pKi is 7.33. This pKi is 1.04 log units lower than that of the compound before.

As to `Cc1nn(Cc2ccc(NC(=O)c3ccc(C(C)(C)C)cc3)cc2)c(C)c1CC(=O)O` [Example 1.15], the pKi is 9.70.

In turn, `CCc1nn(Cc2ccc(C(=O)NC3CCC(C)(C)CC3)cc2)c(CC)c1CC(=O)O` [Example 9.24] had a negative logarithm of the Ki (pKi) of 7.31.

`CCc1nn(Cc2ccc(NC(=O)c3ccc(Cl)cc3C)cc2)c(C2CC2)c1CC(=O)O` [Example 2.49] had a pKi of 9.22.

`Cc1cc(Cn2nc(C)c(CC(=O)O)c2C)ccc1NC(=O)c1ccc(Cl)c(Cl)c1` [Example 7.4]: the negative-log Ki (pKi) is 8.66.

As to `Cc1nn(Cc2ccc(NC(=O)c3ccc(Cl)cc3F)cc2)c(C)c1CC(=O)O` [Example 1.19], the pKi was 7.79.

In turn, `CCc1nn(Cc2ccc(C(=O)Nc3ccc(F)c(Br)c3)cc2)c(CC)c1CC(=O)O` [Example 9.14] gave a pKi of 8.51.

The compound `CCc1nn(Cc2ccc(NC(=O)c3ccc(C)cc3)cc2)c(CC)c1CC(=O)O` [Example 2.4] gave a negative logarithm of the Ki (pKi) of 8.89.

With `CCc1nn(Cc2ccc(OCc3cc(Cl)cc(Cl)c3)cc2)c(CC)c1CC(=O)O` [Example 13.8], the negative-log Ki (pKi) is 7.81.

Turning to `CCc1nn(Cc2ccc(S(=O)(=O)Nc3ccc(Cl)c(Cl)c3)cc2)c(CC)c1CC(=O)O` [Example 10.4], the pKi is 7.67.

`Cc1cc(Cn2nc(C)c(CC(=O)O)c2C)ccc1NC(=O)c1ccc(C(F)(F)F)cc1` [Example 7.3] showed a negative logarithm of the Ki (pKi) of 7.87.

For the compound `Cc1cc(Cn2nc(C)c(CC(=O)O)c2C)ccc1NC(=O)c1ccc(Cl)cc1` [Example 7.2], the pKi was 6.79.

The compound `CCc1nn(Cc2ccc(C(=O)NCc3ccc4ccccc4c3)cc2)c(CC)c1CC(=O)O` [Example 9.17] had a pKi of 7.46.

`Cc1nn(Cc2ccc(NC(=O)c3ccccc3)cc2Cl)c(C)c1CC(=O)O` [Example 7.10] showed a pKi of 8.26. Against the preceding compound, the pKi is 0.80 log units higher.

`Cc1cc(Br)ccc1C(=O)Nc1ccc(Cn2nc(C)c(CC(=O)O)c2C)cc1` [Example 1.16]: the negative logarithm of the Ki (pKi) was 8.41.

As to `CCc1ccccc1C(=O)Nc1ccc(Cn2nc(CC)c(CC(=O)O)c2CC)cc1` [Example 2.23], the negative-log Ki (pKi) is 8.21.

Take `CCc1nn(Cc2ccc(NC(=O)OCc3ccc(Cl)c(Cl)c3)cc2)c(CC)c1CC(=O)O` [Example 3.9]: the pKi is 10.00.

On to `Cc1nn(Cc2ccc([S+]([O-])Cc3ccc(Cl)c(Cl)c3)cc2)c(C)c1CC(=O)O` (centres unmarked) [Example 19.2], for which the negative logarithm of the Ki (pKi) is 7.92. Against the preceding compound, the pKi is 2.08 log units lower.

In the case of `Cc1nn(Cc2ccc(NC(=O)c3ccc4ccccc4c3)cc2)cc1CC(=O)O` [Example 2.57], the negative logarithm of the Ki (pKi) is 7.71.

The compound `CCc1nn(Cc2ccc(NC(=O)c3ccc(Cl)cc3C)cc2)c(CC)c1CC(=O)O` [Example 2.2] gave a negative-log Ki (pKi) of 8.96.

In the case of `Cc1nn(Cc2ccc(NC(=O)OCc3ccccc3Br)cc2)c(C)c1CC(=O)O` [Example 3.6], the negative-log Ki (pKi) was 7.83. Against the preceding compound, the pKi is 1.13 log units lower.

Consider `Cc1nn(Cc2ccc(NC(=O)c3ccc4ccccc4c3Br)cc2)c(C)c1CC(=O)O` [Example 1.30], for which the pKi is 7.84.

The compound `Cc1nn(Cc2ccc(C(O)Cc3ccccc3)cc2)c(C)c1CC(=O)O` (centres unmarked) [Example 15.1] had a negative logarithm of the Ki (pKi) of 6.11.

Regarding `COc1c(CC(=O)O)c(C)nn1Cc1ccc(NC(=O)c2ccc3ccccc3c2)cc1` [Example 2.60], the pKi is 8.38.

`Cc1nn(Cc2ccc(C(=O)Nc3ccc(Cl)c(C(F)(F)F)c3)cc2)c(C)c1CC(=O)O` [Example 9.6] showed a negative logarithm of the Ki (pKi) of 8.52.

`Cc1cc(C)c(C(=O)Nc2ccc(Cn3nc(C)c(CC(=O)O)c3C)cc2)c(C)c1` [Example 1.24]: the negative-log Ki (pKi) is 6.26.

On to `Cc1nn(Cc2ccc(NC(=O)c3cc4ccccc4cc3Cl)cc2)c(C)c1CC(=O)O` [Example 1.23], for which the negative logarithm of the Ki (pKi) is 8.24.

`CCc1nn(Cc2ccc(NC(=O)C3CCC3)cc2)c(CC)c1CC(=O)O` [Example 2.31]: the pKi was 8.30.

The compound `Cc1nn(Cc2ccc(NC(=O)/C=C/c3ccccc3)cc2)c(C)c1CC(=O)O` [Example 1.13] had a negative logarithm of the Ki (pKi) of 8.40.

Turning to `Cc1nn(Cc2ccc(C[S+]([O-])c3ccc(Cl)c(Cl)c3)cc2)c(C)c1CC(=O)O` (centres unmarked) [Example 16.5], the pKi was 6.49.

`CCc1nn(Cc2ccc(/C=C/c3ccc(Cl)cc3)cc2)c(CC)c1CC(=O)O` [Example 12.3] gave a pKi of 7.91.

Take `Cc1nn(Cc2ccc(NC(=O)c3ccccc3)cc2)c(C)c1CCC(=O)O` [Example 8.3]: the pKi was 5.42.

For the compound `Cc1nn(Cc2ccc(C(C)Oc3ccc(Cl)c(Cl)c3)cc2)c(C)c1CC(=O)O` (centres unmarked) [Example 14.4], the pKi was 7.54.

In turn, `Cc1c(CC(=O)O)c(-c2ccccc2)nn1Cc1ccc(NC(=O)c2ccc(Cl)c(Cl)c2)cc1` [Example 2.13] showed a negative logarithm of the Ki (pKi) of 8.54.

`CCc1nn(Cc2ccc(OCc3cccc(C(F)(F)F)c3)cc2)c(CC)c1CC(=O)O` [Example 13.10] had a pKi of 7.71.

Turning to `Cc1nn(Cc2ccc(NC(=O)c3ccc(C(F)(F)F)cc3F)cc2)c(C)c1CC(=O)O` [Example 1.22], the pKi is 5.48.

`Cc1nn(Cc2ccc(C(=O)Nc3cccc(C(F)(F)F)c3)cc2)c(C)c1CC(=O)O` [Example 9.5]: the pKi was 7.86.

`Cc1nn(Cc2ccc(NC(=O)c3ccc(C(F)(F)F)cc3)cc2)c(C)c1CC(=O)NS(=O)(=O)C(C)(C)C` [Example 11.1] gave a pKi of 7.53. Compared with the last compound, the pKi is 0.33 log units lower.

In turn, `Cc1ccc(C(=O)Nc2ccc(Cn3nc(C)c(CC(=O)O)c3C)cc2)cc1` [Example 1.4] showed a negative logarithm of the Ki (pKi) of 8.11. Against the preceding compound, the pKi is 0.58 log units higher.

As for `CCc1nn(Cc2ccc(C(=O)N[C@H]3CC[C@H](c4ccccc4)CC3)cc2)c(CC)c1CC(=O)O` [Example 9.21], the pKi was 8.11.

On to `Cc1nn(Cc2ccc(C(=O)Nc3ccc(Br)c(F)c3)cc2)c(C)c1CC(=O)O` [Example 9.9], for which the negative-log Ki (pKi) was 7.71. Against the preceding compound, the pKi is 0.40 log units lower.

As to `Cc1nn(Cc2ccc(OCc3ccc(Cl)c(C(F)(F)F)c3)cc2)c(C)c1CC(=O)O` [Example 13.5], the pKi was 7.44.

In turn, `CCc1nn(Cc2ccc(NC(=O)C(C)C)cc2)c(CC)c1CC(=O)O` [Example 2.34] had a pKi of 8.37.

Consider `CCc1nn(Cc2ccc(NC(=O)c3cccc4ccccc34)cc2)c(C2CC2)c1CC(=O)O` [Example 2.48], for which the pKi is 8.74. Against the preceding compound, the pKi is 0.37 log units higher.

`Cc1nn(Cc2ccc(NC(=O)OCc3ccc(Cl)c(Cl)c3)cc2)c(C)c1CC(=O)O` [Example 3.4] had a pKi of 9.30.

`CCc1nn(Cc2ccc(NC(=O)OCc3ccc4ccccc4c3)cc2)c(CC)c1CC(=O)O` [Example 3.12] had a negative-log Ki (pKi) of 10.00.

With `Cc1nn(Cc2ccc(NC(=O)OCc3ccccc3)cc2)c(C)c1CC(=O)O` [Example 3.1], the pKi was 8.42.

The compound `Cc1c(CC(=O)O)cnn1Cc1ccc(NC(=O)c2ccc(Cl)c(Cl)c2)cc1` [Example 2.56] had a pKi of 7.56.

For `CCc1nn(Cc2ccc(NC(=O)C3CCCCC3)cc2)c(CC)c1CC(=O)O` [Example 2.18], the pKi is 8.55.

As usually defined, the pKi is the Ki on a negative log10 scale, so that one unit is a factor of ten. High values mean a small Ki, low ones a large Ki.
